These results are taken from patent US6677381B1 (Jame Fine Chemicals, Inc., priority 2001, dated 2004).

Read-outs that look alike come from different tables or passages of the source.

A short description of series [1]: Solubility in water and organic solvents. It is filed as physicochemical. The source says:
The guaifenesin tannate of the invention is a light-tan colored powder which is soluble in water and alcohols, but is insoluble in methylene chloride, chloroform or toluene. […]

For series [2] the following is noted: cited from earlier work; for solubility in alcohols: alcohols such as methanol, ethanol, isopropanol.

Regarding `O=C(OC[C@H]1O[C@@H](OC(=O)c2cc(O)c(O)c(OC(=O)c3cc(O)c(O)c(O)c3)c2)[C@H](OC(=O)c2cc(O)c(O)c(OC(=O)c3cc(O)c(O)c(O)c3)c2)[C@@H](OC(=O)c2cc(O)c(O)c(OC(=O)c3cc(O)c(O)c(O)c3)c2)[C@@H]1OC(=O)c1cc(O)c(O)c(OC(=O)c2cc(O)c(O)c(O)c2)c1)c1cc(O)c(O)c(OC(=O)c2cc(O)c(O)c(O)c2)c1` [tannic acid], in series [1], the solubility in alcohols result is given as “soluble”, the solubility in chloroform result was “insoluble”, the “solubility in methylene chloride” value is reported as “insoluble” and the solubility in toluene result is recorded as “insoluble”. In series [1], the solubility in water entry was “soluble”. The solubility in alcohols result in series [2] is given as “highly soluble”. Moreover, in series [2] (in words), the solubility in water result is reported as “highly soluble”.
Regarding guaifenesin tannate, in series [1] (alcohols, physical properties comparison), the solubility in alcohols result is listed as “soluble”. In series [1] (chloroform), the solubility in chloroform result is “insoluble”. For the same molecule, the “solubility in methylene chloride” value in series [1] (methylene chloride) is “insoluble”. In addition, the solubility in toluene result in series [1] (toluene) is “insoluble”. For the same molecule, in series [1] (water, physical properties comparison), the solubility in water entry is recorded as “soluble”.
`COc1ccccc1OCC(O)CO` (centres unmarked) [guaifenesin, 3-(2-methoxyphenoxy)-1,2-propanediol]: in series [1], the solubility in alcohols entry is “soluble”, the solubility in toluene entry was “sparingly soluble” and the solubility in water entry is reported as “soluble”. Further, in series [2], the solubility in alcohols result is “readily soluble” and the solubility in water result was “about 5 wt. %”.
